The values below come from US11077115B2, “Rorgamma modulators and uses thereof” (Genfit, priority 2017, dated 2021).

Counter-ions that a name gives are not always drawn.

A word on the melting point: it is the temperature, or range, at which the solid turns liquid.

For `COc1ccc(C2(C(=O)NC(c3ccc(C)o3)c3ccc(C)cc3C)CC2)cc1N1CCS(=O)(=O)CC1` (stereo not shown) (as salt: HCl) [Cpd. 69, N-[(2,4-dimethylphenyl)(5-methylfuran-2-yl)methyl]-1-[3-(1,1-dioxo-1-thiomorpholin-4-yl)-4-methoxyphenyl]cyclopropane-1-carboxamide], the melting point amounted to 174 °C.
Regarding `Cc1ccc(C(NC(=O)Cc2ccc(N3CCS(=O)(=O)CC3)c(O)c2)c2ccc(C)o2)c(N2CCCCC2)c1` (stereo not shown) (as salt: HCl) [Cpd. 61, 2-[4-(1,1-dioxo-1-thiomorpholin-4-yl)-3-hydroxyphenyl]-N-{[4-methyl-2-(piperidin-1-yl)phenyl](5-methylfuran-2-yl)methyl}acetamide], the melting point is 105 °C.
With `Cc1ccc(C(NC(=O)Cc2cnc(N3CCS(=O)(=O)CC3)nc2)c2ccc(C)o2)c(N2CCCCC2)c1` (stereo not shown) (as salt: HCl) [Cpd. 20, 2-[2-(1,1-dioxo-1-thiomorpholin-4-yl)pyrimidin-5-yl]-N-{[4-methyl-2-(piperidin-1-yl)phenyl](5-methylfuran-2-yl)methyl}acetamide], the melting point turned out to be 91 °C.
In turn, `COc1cc(CC(=O)NC(c2ccc(C)o2)c2ccc(C)cc2N2CCCCC2)ccc1N1CCS(=O)(=O)CC1` (stereo not shown) (as salt: HCl) [Cpd. 29, 2-[4-(1,1-dioxo-1-thiomorpholin-4-yl)-3-methoxyphenyl]-N-{[4-methyl-2-(piperidin-1-yl)phenyl](5-methylfuran-2-yl)methyl}acetamide] came in with a melting point of 90 °C.
`Cc1ccc(C(NC(=O)Cc2ccc(N3CCS(=O)(=O)CC3)cn2)c2ccc(C)o2)c(N2CCCCC2)c1` (stereo not shown) (as salt: HCl) [Cpd. 47, 2-[5-(1,1-dioxo-1-thiomorpholin-4-yl)pyridin-2-yl]-N-{[4-methyl-2-(piperidin-1-yl)phenyl](5-methylfuran-2-yl)methyl}acetamide] came in with a melting point of 102 °C.
As to `Cc1ccc(C(NC(=O)C2(c3ccc(N4CCS(=O)(=O)CC4)cc3)CC2)c2ccc(Cl)o2)c(C)c1` (stereo not shown) (as salt: HCl) [Cpd. 66, N-[(5-chlorofuran-2-yl)(2,4-dimethylphenyl)methyl]-1-[4-(1,1-dioxo-1-thiomorpholin-4-yl)phenyl]cyclopropane-1-carboxamide], the melting point was determined as 76 °C.
For `Cc1ccc(C(NC(=O)Cc2cnc(N3CCOCC3)nc2)c2ccc(C)o2)c(N2CCCCC2)c1` (stereo not shown) (as salt: HCl) [Cpd. 26, N-{[4-methyl-2-(piperidin-1-yl)phenyl](5-methylfuran-2-yl)methyl}-2-[2-(morpholin-4-yl)pyrimidin-5-yl]acetamide], the melting point was determined as 69 °C.
In the case of `COc1ccc(CC(=O)NC(c2ccc(C)o2)c2ccc(C)cc2N2CCCCC2)cc1N1CCS(=O)(=O)CC1` (stereo not shown) (as salt: HCl) [Cpd. 30, 2-[3-(1,1-dioxo-1-thiomorpholin-4-yl)-4-methoxyphenyl]-N-{[4-methyl-2-(piperidin-1-yl)phenyl](5-methylfuran-2-yl)methyl}acetamide], the melting point came to 88 °C.
The molecule `Cc1ccc(N2CCS(=O)(=O)CC2)cc1CC(=O)NC(c1ccccc1)c1ccccc1N1CCCCC1` (stereo not shown) (as salt: HCl) [Cpd. 2, 2-[5-(1,1-dioxo-1-thiomorpholin-4-yl)-2-methylphenyl]-N-{phenyl[2-(piperidin-1-yl)phenyl]methyl}acetamide] displayed a melting point of 188 °C.
`Cc1ccc(C(NC(=O)Cc2ccc(N3CCS(=O)(=O)CC3)cc2)c2ccccc2)c(N2CC3CC3C2)c1` (stereo not shown) (as salt: HCl) [Cpd. 22, N-[(2-{3-azabicyclo[3.1.0]hexan-3-yl}-4-methylphenyl)(phenyl)methyl]-2-[4-(1,1-dioxo-1-thiomorpholin-4-yl)phenyl]acetamide] showed a melting point of 104 °C.
As for `Cc1ccc(C(NC(=O)Cc2ccc(N3CCS(=O)(=O)CC3)cc2)c2ccc(C)o2)c(N2CCCCC2)c1` (stereo not shown) (as salt: HCl) [Cpd. 6, 2-[4-(1,1-dioxo-1-thiomorpholin-4-yl)phenyl]-N-{[4-methyl-2-(piperidin-1-yl)phenyl](5-methylfuran-2-yl)methyl}acetamide], the melting point was determined as 101 °C.
The same measure for `Cc1ccc(C(NC(=O)Cc2cnc(N3CCS(=O)(=O)CC3)nc2)c2ccc(C)o2)c(Cl)c1` (stereo not shown) (as salt: HCl) [Cpd. 51, N-[(2-chloro-4-methylphenyl)(5-methylfuran-2-yl)methyl]-2-[2-(1,1-dioxo-1-thiomorpholin-4-yl)pyrimidin-5-yl]acetamide]: 208 °C.
The molecule `Cc1ccc(C(NC(=O)Cc2ccc(N3CCS(=O)(=O)CC3)cc2C)c2ccc(C)o2)c(C)c1` (stereo not shown) (as salt: HCl) [Cpd. 19, N-[(2,4-dimethylphenyl)(5-methylfuran-2-yl)methyl]-2-[4-(1,1-dioxo-1-thiomorpholin-4-yl)-2-methylphenyl]acetamide] displayed a melting point of 178 °C.
Take `Cc1ccc(C(NC(=O)Cc2ccc(O)c(N3CCS(=O)(=O)CC3)c2)c2ccc(C)o2)c(C)c1` (stereo not shown) (as salt: HCl) [Cpd. 43, N-[(2,4-dimethylphenyl)(5-methylfuran-2-yl)methyl]-2-[3-(1,1-dioxo-1-thiomorpholin-4-yl)-4-hydroxyphenyl]acetamide]: the melting point was 146 °C.
In turn, `Cc1ccc(C(NC(=O)C(C)(C)c2ccc(N3CCS(=O)(=O)CC3)cc2)c2ccc(C)o2)c(C)c1` (stereo not shown) (as salt: HCl) [Cpd. 40, N-[(2,4-dimethylphenyl)(5-methylfuran-2-yl)methyl]-2-[4-(1,1-dioxo-1-thiomorpholin-4-yl)phenyl]-2-methylpropanamide] showed a melting point of 67 °C.
`Cc1ccc(C(NC(=O)Cc2ccc(N3CCS(=O)(=O)CC3)c(C)c2)c2ccc(C)o2)c(C(F)(F)F)c1` (stereo not shown) (as salt: HCl) [Cpd. 10, 2-[4-(1,1-dioxo-1-thiomorpholin-4-yl)-3-methylphenyl]-N-{[4-methyl-2-(trifluoromethyl)phenyl](5-methylfuran-2-yl)methyl}acetamide] registered a melting point of 99 °C.
For the molecule `Cc1ccc(C(NC(=O)Cc2ncc(N3CCS(=O)(=O)CC3)cn2)c2ccc(C)o2)c(N2CCCCC2)c1` (stereo not shown) (as salt: HCl) [Cpd. 65, 2-[5-(1,1-dioxo-1-thiomorpholin-4-yl)pyrimidin-2-yl]-N-{[4-methyl-2-(piperidin-1-yl)phenyl](5-methylfuran-2-yl)methyl}acetamide], the melting point was 99 °C.
As to `COc1ccc(C(NC(=O)Cc2ccc(N3CCS(=O)(=O)CC3)c(C)c2)c2ccc(C)o2)c(N2CCC(C(F)(F)F)CC2)c1` (stereo not shown) (as salt: HCl) [Cpd. 14, 2-[4-(1,1-dioxo-1-thiomorpholin-4-yl)-3-methylphenyl]-N-({4-methoxy-2-[4-(trifluoromethyl)piperidin-1-yl]phenyl}(5-methylfuran-2-yl)methyl)acetamide], the melting point came out at 106 °C.
The same measure for `Cc1ccc(C(NC(=O)C2(c3ncc(N4CCS(=O)(=O)CC4)cc3C)CC2)c2ccc(C)o2)c(C)c1` (stereo not shown) (as salt: HCl) [Cpd. 72, N-[(2,4-dimethylphenyl)(5-methylfuran-2-yl)methyl]-1-[5-(1,1-dioxo-1-thiomorpholin-4-yl)-3-methylpyridin-2-yl]cyclopropane-1-carboxamide]: 87 °C.
